Test results as given in ChEMBL document CHEMBL1201862, “PubChem BioAssay data set” (2004).
The source made the active and inactive calls.

Columns and labels:
Cytochrome P450 2C19 = Cytochrome P450 2C19 (Homo sapiens, UniProt P33261); assay: Cytochrome panel assay with activity outcomes. Panel member name: p450-cyp2c19 Compounds with AC50 equal or less than 10 uM are considered active; assay type: functional
Cytochrome P450 1A2 = molecular target: T1, Cytochrome P450 1A2 (Homo sapiens, UniProt P05177);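 further: PubChem cytochrome P450 panel assay, CYP1A2 panel member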
T1 sequence (P05177 whole entry): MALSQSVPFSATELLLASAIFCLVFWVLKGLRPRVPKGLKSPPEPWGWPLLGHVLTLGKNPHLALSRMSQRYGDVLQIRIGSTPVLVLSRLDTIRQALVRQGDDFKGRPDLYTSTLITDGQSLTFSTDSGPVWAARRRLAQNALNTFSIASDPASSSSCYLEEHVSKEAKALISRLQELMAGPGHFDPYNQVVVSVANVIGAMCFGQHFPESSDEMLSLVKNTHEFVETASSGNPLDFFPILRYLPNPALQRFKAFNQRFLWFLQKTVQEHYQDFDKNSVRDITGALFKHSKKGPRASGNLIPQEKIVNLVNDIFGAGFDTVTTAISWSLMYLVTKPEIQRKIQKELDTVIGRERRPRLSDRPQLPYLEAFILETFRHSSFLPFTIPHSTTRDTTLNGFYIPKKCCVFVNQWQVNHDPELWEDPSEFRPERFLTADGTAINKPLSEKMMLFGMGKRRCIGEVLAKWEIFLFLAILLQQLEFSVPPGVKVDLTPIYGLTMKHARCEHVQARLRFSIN

Cytochrome P450 2C9 = Cytochrome P450 2C9 (Homo sapiens, UniProt P11712)
[1] = molecular target: T2, Mannose-6-phosphate isomerase (Homo sapiens, UniProt P34949); assay: MPI inhibition at elevated mannose 6-phosphate – biochemical, fluorescence intensity, high mannose 6-phosphate, primary screen (AID 1220)
T2 sequence (P34949 whole entry): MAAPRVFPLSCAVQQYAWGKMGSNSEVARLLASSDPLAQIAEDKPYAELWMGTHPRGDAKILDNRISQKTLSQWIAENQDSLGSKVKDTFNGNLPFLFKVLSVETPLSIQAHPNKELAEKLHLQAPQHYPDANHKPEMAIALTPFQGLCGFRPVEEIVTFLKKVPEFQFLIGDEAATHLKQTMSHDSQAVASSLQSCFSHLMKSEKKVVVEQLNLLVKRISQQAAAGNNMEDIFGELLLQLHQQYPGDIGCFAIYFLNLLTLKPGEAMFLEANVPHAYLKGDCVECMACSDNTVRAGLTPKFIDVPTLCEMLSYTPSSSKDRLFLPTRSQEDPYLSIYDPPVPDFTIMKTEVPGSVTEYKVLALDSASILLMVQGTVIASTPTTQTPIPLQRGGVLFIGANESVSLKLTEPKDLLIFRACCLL

Nonstructural protein 1 = Nonstructural protein 1 (Influenza A virus, UniProt Q194T2); assay type: functional, Influenza A virus (A/California/07/2009(H1N1))
[2] = molecular target: T3, Histone-lysine N-methyltransferase NSD2 (Homo sapiens, UniProt O96028); assay type: biochemical
T3 sequence (O96028 whole entry): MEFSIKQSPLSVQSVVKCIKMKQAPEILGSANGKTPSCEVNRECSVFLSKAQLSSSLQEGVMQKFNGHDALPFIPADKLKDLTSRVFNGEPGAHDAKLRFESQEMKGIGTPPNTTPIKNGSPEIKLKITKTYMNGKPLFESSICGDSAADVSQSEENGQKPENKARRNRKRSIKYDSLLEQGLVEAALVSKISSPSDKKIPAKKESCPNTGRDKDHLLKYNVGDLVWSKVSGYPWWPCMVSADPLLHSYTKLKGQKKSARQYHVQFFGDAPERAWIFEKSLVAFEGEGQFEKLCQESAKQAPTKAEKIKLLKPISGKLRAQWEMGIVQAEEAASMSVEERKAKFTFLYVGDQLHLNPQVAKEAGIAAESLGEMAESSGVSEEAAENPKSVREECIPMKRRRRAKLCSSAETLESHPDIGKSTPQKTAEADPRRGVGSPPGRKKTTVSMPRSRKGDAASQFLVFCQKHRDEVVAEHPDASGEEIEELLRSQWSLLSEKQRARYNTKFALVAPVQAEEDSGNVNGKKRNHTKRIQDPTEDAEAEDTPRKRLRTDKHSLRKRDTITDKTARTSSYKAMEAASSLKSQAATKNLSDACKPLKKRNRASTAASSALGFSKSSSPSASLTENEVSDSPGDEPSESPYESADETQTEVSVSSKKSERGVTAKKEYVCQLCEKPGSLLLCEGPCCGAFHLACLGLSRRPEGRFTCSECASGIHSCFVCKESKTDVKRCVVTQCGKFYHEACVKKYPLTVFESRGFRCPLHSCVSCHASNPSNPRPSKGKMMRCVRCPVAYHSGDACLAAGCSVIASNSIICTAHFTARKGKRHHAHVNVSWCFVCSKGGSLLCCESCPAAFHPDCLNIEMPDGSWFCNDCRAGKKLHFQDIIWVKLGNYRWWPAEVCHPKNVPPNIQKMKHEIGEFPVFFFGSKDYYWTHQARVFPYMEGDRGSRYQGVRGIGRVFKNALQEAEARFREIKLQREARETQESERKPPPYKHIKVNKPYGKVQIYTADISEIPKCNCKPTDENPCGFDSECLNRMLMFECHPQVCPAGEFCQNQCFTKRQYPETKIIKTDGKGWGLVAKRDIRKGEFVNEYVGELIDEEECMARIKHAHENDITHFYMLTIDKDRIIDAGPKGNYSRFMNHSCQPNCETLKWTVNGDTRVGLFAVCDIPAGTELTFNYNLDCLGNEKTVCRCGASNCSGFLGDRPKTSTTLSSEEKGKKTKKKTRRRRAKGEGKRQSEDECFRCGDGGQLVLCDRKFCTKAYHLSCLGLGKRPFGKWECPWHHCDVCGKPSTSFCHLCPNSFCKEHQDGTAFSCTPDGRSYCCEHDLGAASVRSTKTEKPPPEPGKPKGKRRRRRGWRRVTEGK

[3] = viability of PTEN-deleted HCT116 cells – cell-based, HCT116 PTEN knockout, dose response (AID 1047); assay type: functional;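 further: HCT116 colon tumor cells with PTEN knocked out; cells exposed to compound for 60 hours before readout; potency for loss of cell viability measured by luminescence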
[4] = viability of HCT116 lacking mutant beta-catenin – cell-based, human colon tumor, dose response (AID 1045); assay type: functional;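 further: HCT116 colon tumor cells with beta catenin knocked out; cells exposed to compound for 60 hours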
[5] = molecular target: T4, DNA repair and recombination protein RAD54-like (Homo sapiens, UniProt Q92698); assay: RAD54 Holliday junction migration blockers – biochemical, fluorescence, cherry-picked samples, dose series, confirmation (AID 651657); assay type: functional
T4 sequence (Q92698 whole entry): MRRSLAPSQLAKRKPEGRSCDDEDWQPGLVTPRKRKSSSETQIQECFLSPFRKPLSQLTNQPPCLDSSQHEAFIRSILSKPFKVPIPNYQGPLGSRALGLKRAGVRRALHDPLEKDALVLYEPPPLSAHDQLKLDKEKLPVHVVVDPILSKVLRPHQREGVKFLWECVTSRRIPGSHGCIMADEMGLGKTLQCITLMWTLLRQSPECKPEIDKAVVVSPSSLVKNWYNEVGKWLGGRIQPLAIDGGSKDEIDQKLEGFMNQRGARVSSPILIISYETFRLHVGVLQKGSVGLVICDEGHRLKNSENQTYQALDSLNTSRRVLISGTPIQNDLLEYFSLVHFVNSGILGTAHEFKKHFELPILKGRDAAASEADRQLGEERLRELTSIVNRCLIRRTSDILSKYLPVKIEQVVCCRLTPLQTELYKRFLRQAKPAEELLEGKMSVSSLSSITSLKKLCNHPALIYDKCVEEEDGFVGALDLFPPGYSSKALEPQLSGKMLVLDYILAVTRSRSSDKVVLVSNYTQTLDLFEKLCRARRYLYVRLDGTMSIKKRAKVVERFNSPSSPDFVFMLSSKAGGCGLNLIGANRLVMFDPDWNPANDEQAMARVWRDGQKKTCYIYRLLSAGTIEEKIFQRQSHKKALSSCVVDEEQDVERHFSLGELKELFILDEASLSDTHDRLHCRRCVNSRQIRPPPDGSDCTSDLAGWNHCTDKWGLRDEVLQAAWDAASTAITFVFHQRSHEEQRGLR

[6] = Trypanosoma cruzi growth suppression in host cells – NIH3T3 host cells, beta-gal luminescence, confirmation (AID 2044); assay type: functional, cell-based;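 further: intracellular parasites grown in NIH/3T3 mouse fibroblasts as host cells; luminescent beta-galactosidase reporter signal from transgenic T. cruzi replicating inside host cells; inhibitors lower the luminescence signal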
[7] = NIH3T3 cell viability loss – ATP luminescence, mouse fibroblasts, counter-screen, dose response (AID 2010); assay type: functional, cell-based;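 further: cells exposed to compound for about 90 hours before reading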
Protein skinhead-1 = molecular target: T5, Protein skinhead-1 (Caenorhabditis elegans, UniProt P34707); assay type: functional
T5 sequence (P34707 whole entry): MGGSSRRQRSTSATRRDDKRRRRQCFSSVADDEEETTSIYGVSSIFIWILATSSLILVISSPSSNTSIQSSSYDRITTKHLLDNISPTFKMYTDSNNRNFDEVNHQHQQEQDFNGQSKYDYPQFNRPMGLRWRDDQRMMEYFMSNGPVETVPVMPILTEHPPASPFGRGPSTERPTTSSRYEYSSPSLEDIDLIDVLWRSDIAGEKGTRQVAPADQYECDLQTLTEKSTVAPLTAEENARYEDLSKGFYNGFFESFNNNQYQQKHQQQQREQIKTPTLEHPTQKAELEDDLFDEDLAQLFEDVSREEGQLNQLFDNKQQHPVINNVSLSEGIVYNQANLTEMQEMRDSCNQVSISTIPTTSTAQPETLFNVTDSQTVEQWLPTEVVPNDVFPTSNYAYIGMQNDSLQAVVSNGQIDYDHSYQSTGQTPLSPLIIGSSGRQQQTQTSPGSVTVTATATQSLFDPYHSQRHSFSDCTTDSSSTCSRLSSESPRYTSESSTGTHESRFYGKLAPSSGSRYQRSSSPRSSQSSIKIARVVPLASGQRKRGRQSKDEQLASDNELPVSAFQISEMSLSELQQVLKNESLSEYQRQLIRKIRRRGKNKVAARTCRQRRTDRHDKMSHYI

[8] = molecular target: T6, DNA repair protein RAD52 homolog (Homo sapiens, UniProt P43351); assay type: functional, biochemical
T6 sequence (P43351 whole entry): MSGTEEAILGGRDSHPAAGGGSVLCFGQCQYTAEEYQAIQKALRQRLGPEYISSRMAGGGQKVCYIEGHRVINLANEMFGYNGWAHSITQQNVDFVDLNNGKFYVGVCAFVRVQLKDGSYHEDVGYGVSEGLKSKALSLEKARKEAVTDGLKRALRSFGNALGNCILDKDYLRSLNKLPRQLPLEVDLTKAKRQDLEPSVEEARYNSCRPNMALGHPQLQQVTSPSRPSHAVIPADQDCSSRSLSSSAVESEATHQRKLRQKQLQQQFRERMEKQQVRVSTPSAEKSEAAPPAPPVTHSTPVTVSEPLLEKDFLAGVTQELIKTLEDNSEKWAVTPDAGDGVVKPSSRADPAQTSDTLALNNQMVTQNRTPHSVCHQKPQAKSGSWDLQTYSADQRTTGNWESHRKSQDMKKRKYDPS

Paired box protein Pax-8 = Paired box protein Pax-8 (Homo sapiens, UniProt Q06710); assay: PAX8 transcriptional activity inhibition in RMG-I – RMG-I cells, luciferase, cherry-pick, dose response (AID 687027); assay type: functional, cell-based;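 further: luciferase reporter driven by Pax8 target thyroperoxidase promoter measured by SteadyGlo luminescence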
[9] = IGROV1 cell killing – plate reader, dry powder samples, PAX8 inhibitor project, dose response (AID 743043); assay type: functional, cell-based; settings: IGROV-1
[10] = OVCAR8 cell viability loss – plate reader, dry powder samples, PAX8 project, dose response (AID 743197); assay type: functional, cell-based; settings: OVCAR-8
[11] = OVCAR-3 cell viability loss – plate reader, dry powder samples, PAX8 inhibitor project, dose response (AID 743044); assay type: functional, cell-based

Paired box protein Pax-8, sequence (Q06710 whole entry): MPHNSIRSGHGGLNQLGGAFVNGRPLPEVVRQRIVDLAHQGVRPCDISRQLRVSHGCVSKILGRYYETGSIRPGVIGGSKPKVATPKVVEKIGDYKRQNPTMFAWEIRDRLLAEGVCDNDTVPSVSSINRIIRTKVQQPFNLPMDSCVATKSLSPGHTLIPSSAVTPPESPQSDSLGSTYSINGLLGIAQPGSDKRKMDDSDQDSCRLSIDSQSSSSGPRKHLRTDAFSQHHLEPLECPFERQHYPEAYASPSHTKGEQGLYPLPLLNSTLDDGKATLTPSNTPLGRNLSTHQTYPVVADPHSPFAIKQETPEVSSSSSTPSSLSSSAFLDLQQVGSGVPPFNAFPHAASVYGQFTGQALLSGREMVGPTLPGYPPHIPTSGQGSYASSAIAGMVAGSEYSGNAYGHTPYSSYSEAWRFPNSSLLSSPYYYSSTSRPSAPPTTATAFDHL
Cytochrome P450 2C9, sequence (P11712 whole entry): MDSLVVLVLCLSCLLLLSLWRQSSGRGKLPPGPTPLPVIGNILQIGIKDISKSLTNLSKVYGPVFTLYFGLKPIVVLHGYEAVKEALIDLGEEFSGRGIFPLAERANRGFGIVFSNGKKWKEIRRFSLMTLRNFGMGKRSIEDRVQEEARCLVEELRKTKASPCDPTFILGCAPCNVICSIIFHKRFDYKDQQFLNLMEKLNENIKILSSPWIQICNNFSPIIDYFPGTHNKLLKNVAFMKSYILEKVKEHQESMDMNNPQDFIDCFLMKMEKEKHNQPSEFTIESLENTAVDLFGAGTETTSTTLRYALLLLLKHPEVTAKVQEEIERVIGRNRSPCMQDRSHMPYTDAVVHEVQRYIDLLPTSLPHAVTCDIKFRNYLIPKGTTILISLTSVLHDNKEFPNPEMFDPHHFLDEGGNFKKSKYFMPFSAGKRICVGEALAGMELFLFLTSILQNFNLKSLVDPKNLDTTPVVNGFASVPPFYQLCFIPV
Nonstructural protein 1, sequence (Q194T2 whole entry): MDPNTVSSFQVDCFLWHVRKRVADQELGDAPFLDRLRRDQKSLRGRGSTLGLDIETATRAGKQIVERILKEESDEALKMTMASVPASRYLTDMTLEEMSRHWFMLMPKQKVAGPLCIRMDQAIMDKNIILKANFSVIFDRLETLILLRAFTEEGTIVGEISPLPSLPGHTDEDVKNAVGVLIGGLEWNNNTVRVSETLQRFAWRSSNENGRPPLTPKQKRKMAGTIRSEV
Cytochrome P450 2C19, sequence (P33261 whole entry): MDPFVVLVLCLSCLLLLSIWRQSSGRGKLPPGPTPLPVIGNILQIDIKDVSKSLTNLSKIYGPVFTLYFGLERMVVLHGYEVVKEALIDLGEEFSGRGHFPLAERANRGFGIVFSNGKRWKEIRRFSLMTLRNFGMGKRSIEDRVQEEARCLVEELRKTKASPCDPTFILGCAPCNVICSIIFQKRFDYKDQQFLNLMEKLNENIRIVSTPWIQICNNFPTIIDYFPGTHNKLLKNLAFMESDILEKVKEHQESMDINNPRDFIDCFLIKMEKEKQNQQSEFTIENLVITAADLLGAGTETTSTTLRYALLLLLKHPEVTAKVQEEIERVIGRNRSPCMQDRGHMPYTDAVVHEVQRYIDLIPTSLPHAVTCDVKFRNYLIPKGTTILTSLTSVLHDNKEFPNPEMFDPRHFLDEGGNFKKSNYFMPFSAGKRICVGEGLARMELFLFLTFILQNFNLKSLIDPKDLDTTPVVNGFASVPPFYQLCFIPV

SMILES: COc1ncc2nc(C)c(=O)n(CCC#N)c2n1
- AC50 (Cytochrome P450 2C19): inconclusive
- AC50 (Cytochrome P450 1A2): 15.8 µM (inconclusive)
- AC50 (Cytochrome P450 2C9): inconclusive

SMILES: O=c1cc(O)c2sc(Nc3cccc(C(F)(F)F)c3)nc2[nH]1
- IC50 [1]: > 50 µM (not active)

SMILES: CCOc1ccc(NC2=C(OC)C(=O)c3ccccc3C2=O)cc1
- IC50 (Nonstructural protein 1): 7.02 µM (active)
- AC50 [2]: 6.18 µM (active)

SMILES: CCN(CC)CCNC(=O)c1cc2c(-c3ccc(Cl)cc3)nn(C)c2s1
- EC50 [3]: 5.5 µM (active)
- EC50 [4]: 4.09 µM (active)
- AC50 [5]: 6.7 µM (active)

SMILES: CCN(CC)CCNS(=O)(=O)c1ccc2c3c(cccc13)C(=O)N2
- AC50 [2]: > 20 µM (inactive)

SMILES: CN1CCN(c2nc(-c3cccc([N+](=O)[O-])c3)nc3ccccc23)CC1
- AC50 [5]: 7.36 µM (active)

SMILES: Cn1cc(CN2CCCC(CNC(=O)c3ccc4c(c3)OCO4)C2)c2ccccc21 (stereo not given)
- EC50 [6]: < 100 nM (active)
- EC50 [7]: > 60 µM (not active)
- EC50 (cells): 64 nM (active)

SMILES: CCN(CC)S(=O)(=O)c1cccc2c(N(C)C)cccc12
- IC50 (Protein skinhead-1): > 100 µM (inactive)
- AC50 (Cytochrome P450 2C9): inconclusive

SMILES: COc1cccc2sc3cc(NCCCN4CCOCC4)ccc3c(=O)c12
- AC50 [5]: 10.6 µM (active)
- AC50 [8]: 5.68 µM (active)

SMILES: NCc1csc(Nc2nncc3ccccc23)n1
- AC50 [5]: 23.7 µM (active)

SMILES: COc1ccc(-c2nn(-c3ccccc3)cc2C(=O)N/N=C/c2ccc([N+](=O)[O-])o2)cc1
- EC50 [6]: < 100 nM (active)
- EC50 [7]: > 60 µM (not active)
- EC50 (cells): 38 nM (active)

SMILES: C[C@@H]1CCCCO[C@@H](CN(C)C(=O)Nc2ccc(F)cc2)[C@H](C)CN([C@H](C)CO)C(=O)c2cc(NS(=O)(=O)c3ccc(Cl)cc3)ccc2O1
- AC50 (Paired box protein Pax-8): 6.23 µM (active)
- AC50 [9]: 53 µM (active)
- AC50 [10]: > 70 µM (inactive)

SMILES: C[C@@H]1CCCCO[C@@H](CN(C)Cc2ccc3c(c2)OCO3)[C@@H](C)CN([C@@H](C)CO)C(=O)c2cc(NC(=O)Nc3ccc(C(F)(F)F)cc3)ccc2O1
- AC50 (Paired box protein Pax-8): 8.56 µM (active)
- AC50 [11]: 40.3 µM (active)
- AC50 [9]: 37.4 µM (active)
- AC50 [10]: 44 µM (active)

SMILES: O=C1C(=O)C(Cl)=C(Cl)C(Cl)=C1Cl
- AC50 [2]: 11.2 µM (active)
